Ends that are not written are not given here.
Key:
[1] = system: Malassezia furfur; assay: Growth inhibition of Malassezia furfur with equal concentrations (% by weight) of P18, Zincpyrithione, Climbazole and Ketoconazole, CFU; type: cell-based; conditions: for colony-forming units: 50 μM final conc., mean ± SD
Experimental: (§1) Growth medium: M472-Pityrosporum medium according to DSMZ
(§2) The components were sterilized at 121° C., 1 bar superatmospheric pressure for 20 minutes.
(§3) 2 g/L of olive oil (sterilized by filtration and, after autoclaving, added to the other components)
(§4) Since it was a two-phase medium, the complete medium was treated with sonication in order to enlarge the phase boundary.
(§5) For agar plates, if appropriate, 150 g/L of agar agar were added to the medium.
(§6) The growth test was carried out as follows: A shake flask with M472-Pityrosporum medium was inoculated with M. furfur and incubated with shaking overnight at 30° C. and 200 rpm.
A 96-well microtiter plate was filled with in each case 100 μl of M472-Pityrosporum medium and inoculated with M. furfur suspension of the overnight culture. The M. furfur suspension was adjusted at the start of the experiment to an optical density, measured at 600 nm, of 0.02. The concentrates of the inhibitor solutions were 1 mM in DMSO for the peptide P18 and 10 mM in DMSO for Zincpyrithione, Ketoconazole and Climbazole. The DMSO final concentrations were maintained the same in all experiments. This means that a corresponding volume of DMSO was added to the mixture in the case of a higher concentration of Zincpyrithione, Ketoconazole or Climbazole concentrate in order to ensure comparability to the mixtures containing P18.
The growth of the following batches was compared by measuring the optical density:
M. furfur suspension and addition of P18 solution with a final concentration of 50 μM (equal to 0.0115% (w/w))
M furfur suspension and addition of Zincpyrithione (ZPT) solution with a final concentration of 362 μM (comparison to the mixture containing 50 μM of the peptide P18)
M furfur suspension and addition of Ketoconazole solution with a final concentration of 216 μM (comparison to the mixture containing 50 μM of the peptide P18)
M furfur suspension and addition of Climbazole solution with a final concentration of 390 μM (comparison to the mixture containing 50 μM of the peptide P18)
(§7) The microtiter plate was incubated with shaking at 30° C.
After 24 hours of incubation, the colony-forming units (CFU) were determined by plating out 10 μl of medium from each of the suspensions on agar plates. After incubation for 6 days, the colonies on the plates were counted. The CFU was determined in order to exclude an influence of the two-phase medium and also the growth form of M. furfur on the optical density. The experiments were carried out in at least two independent experiments, each with double determination.

[2] = system: Malassezia furfur; assay: Incubation times with P18 from 5 minutes to 1 hour, CFU of M. furfur, compared to Zincpyrithione; type: cell-based
Experimental: Since growth inhibition of M. furfur by the peptide P18 (P18 peptide sequence H-KWKLFKKIPKFLHLAKKF-NH2; SEQ ID NO: 3) had so far only been analyzed over incubation times of more than one hour, now the effect of the peptide P18 within the first minutes of incubation (5 minutes, 10 minutes and 20 minutes) up to the first hour after adding to the M. furfur overnight culture was tested and compared to the reference substance Zincpyrithione (Sigma Aldrich). For this, the peptide P18 and the reference substance Zincpyrithione were used in concentrations of 100 μM, 200 μM and 500 μM. The experiments were carried out as follows:
as §1, §2, §3, §4, §5, §6
A 96-well microtiter plate was filled with in each case 100 μl of M472-Pityrosporum medium and inoculated with M. furfur suspension of the overnight culture. The M. furfur suspension was adjusted at the start of the experiment to an optical density, measured at 600 nm, of 0.1.
The growth of the following batches was compared:
M. furfur suspension and addition of the peptide P18 with a final concentration of 100 μM, plating out after 5 minutes, 10 minutes, 20 minutes and 60 minutes
M. furfur suspension and addition of the peptide P18 with a final concentration of 200 μM plating out after 5 minutes, 10 minutes, 20 minutes and 60 minutes
M. furfur suspension and addition of the peptide P18 with a final concentration of 500 μM plating out after 5 minutes, 10 minutes, 20 minutes and 60 minutes
M. furfur suspension and addition of Zincpyrithione with a final concentration of 100 μM plating out after 5 minutes, 10 minutes, 20 minutes and 60 minutes
M. furfur suspension and addition of Zincpyrithione with a final concentration of 200 μM plating out after 5 minutes, 10 minutes, 20 minutes and 60 minutes
M. furfur suspension and addition of Zincpyrithione with a final concentration of 500 μM plating out after 5 minutes, 10 minutes, 20 minutes and 60 minutes
as §7
After the incubation times indicated above, the colony-forming units (CFU) were determined by plating out 50 μl from each of the suspensions and, after incubation for 6 days, counting the colonies. The CFU was determined in order to exclude an influence of the two-phase medium and also the growth form of M. furfur on the optical density. The experiments were independently repeated.

Substance: KWKLFKKIPKFLHLAKKF-NH2 [P18, KWKLFKKIPKFLHLAKKF-NH2]
- reduction of CFU compared to reference substances ([1]; 50 μM (0.0115% (w/w)), equal % by weight, 24 hours): more effectively than the reference substances Zincpyrithione, Climbazole and Ketoconazole
- colony-forming units ([1]; incubation time 24 h): 1 ± 1
- colony-forming units ([1]; incubation time 40 h): 0 ± 0
- number of living Malassezia furfur cells ([2]; after the first 10 minutes of incubation): considerably reduced as compared to incubation with Zincpyrithione
- colony-forming units after the indicated incubation time ([2]; final concentration 100 μM, 5 minutes): >1000
- colony-forming units after the indicated incubation time ([2]; final concentration 100 μM, 10 minutes): >1000
- colony-forming units after the indicated incubation time ([2]; final concentration 100 μM, 20 minutes): 604
- colony-forming units after the indicated incubation time ([2]; final concentration 100 μM, 60 minutes): 149 ± 60
- colony-forming units after the indicated incubation time ([2]; final concentration 200 μM, 5 minutes): >1000
- colony-forming units after the indicated incubation time ([2]; final concentration 200 μM, 10 minutes): >1000
- colony-forming units after the indicated incubation time ([2]; final concentration 200 μM, 20 minutes): >1000
- colony-forming units after the indicated incubation time ([2]; final concentration 200 μM, 60 minutes): 52 ± 16
- colony-forming units after the indicated incubation time ([2]; final concentration 500 μM, 5 minutes): >1000
- colony-forming units after the indicated incubation time ([2]; final concentration 500 μM, 10 minutes): 398 ± 290
- colony-forming units after the indicated incubation time ([2]; final concentration 500 μM, 20 minutes): 26 ± 6
- colony-forming units after the indicated incubation time ([2]; final concentration 500 μM, 60 minutes): 1 ± 1

From patent US8765688B2, “Anti-dandruff compositions containing peptides” (priority 2007, dated 2014)
